Experimental data: patent US7385026B1, “Modified ghrelin polypeptides” (priority 1999, dated 2008)
“And” between values parts separate entries of the source, which are not always exact repeats. Equal entries are not always repeated.

What was measured:
[1] = test system: amino-terminal antibody (anti-[C-Cys]-rat ghrelin [1-11] antigen); test: Radioimmunoassay: inhibition of binding of labeled rat ghrelin to amino-terminal antibody; set-up: species or system rabbit
[2] = target: carboxyl-terminal antibody (anti-[C-Cys]-rat ghrelin [13-28] antigen); test: Radioimmunoassay: inhibition of binding of labeled rat ghrelin to carboxyl-terminal antibody; set-up: species or system rabbit; settings: FIG. 9b, amount per reaction tube
Excerpt: Using antibodies raised against amino- and carboxyl-terminal rat ghrelin peptides as antigens, ghrelin in various living tissues was quantified by radioimmunoassay (RIA).
Rabbits were immunized with [C-Cys]-rat ghrelin [1-11] (rat ghrelin peptide of amino acids 1 to 11 from amino-terminal having cysteine bound to the carboxyl-terminal thereof) and [C-Cys]-rat ghrelin [13-28] (rat ghrelinpeptideof aminoacids 13 to 28 from amino-terminal having cysteine bound to the carboxyl-terminal thereof) as antigens, to form amino-terminal antibody (anti-[C-Cys]-rat ghrelin [1-11] antigen) and carboxyl-terminal antibody (anti-[C-Cys]-rat ghrelin [13-28] antigen) respectively.
That is, it was confirmed that the carboxyl-terminal antibodyhas the same affinity for ghrelin modified with fatty acid and for ghrelin from which fatty acid was released.

rat GHS-receptor (GHR-R) = target: T1, rat GHS-receptor (GHR-R) (Rattus norvegicus, UniProt O08725); test: Ca-releasing activity (increase in intracellular calcium) in CHO-GHSR62 cells, FLIPR; assay type: cell-based
T1 construct: A full-length cDNA for rat GHR-R was obtained by RT-PCR; expressed in transfected cells
T1 sequence (O08725 whole entry): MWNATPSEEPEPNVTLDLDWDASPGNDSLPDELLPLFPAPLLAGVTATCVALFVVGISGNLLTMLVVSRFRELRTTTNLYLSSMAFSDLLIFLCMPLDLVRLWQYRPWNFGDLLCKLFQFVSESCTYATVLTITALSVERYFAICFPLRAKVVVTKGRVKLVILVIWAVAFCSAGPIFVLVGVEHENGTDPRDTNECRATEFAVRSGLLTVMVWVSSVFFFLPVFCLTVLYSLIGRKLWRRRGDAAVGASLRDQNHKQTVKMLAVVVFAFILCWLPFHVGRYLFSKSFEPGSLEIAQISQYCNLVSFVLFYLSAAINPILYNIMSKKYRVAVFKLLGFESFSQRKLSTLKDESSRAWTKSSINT
Outline: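 CHO cells stably expressing full-length rat GHS-R (CHO-GHSR62) were cultured 12–15 h, loaded with 4 μM Fluo4 for 1 h and washed with Hank's BSS containing 20 mM Hepes and 2.5 mM probenecid. Ca-releasing activity of ghrelin peptides, fragments or derivatives was read by FLIPR as the fluorescence change after sample addition.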

[3] = test system: rat pituitary cultured cells; test: Intracellular calcium change in primary anterior pituitary cells; assay type: cell-based; settings: FIG. 5a
Wistar strain male rats = test: Change of GH level in plasma over time after i.v. administration; assay type: in vivo, rat; settings: 5 μg/head i.v.; for GH level in plasma, individual rats (Rat 1-5): listed as [Cys^3(Octyl)]-rat ghrelin
Protocol: Physiological saline as the control and rat ghrelin (5 μg/head) were also administered and compared with Compound 18.

Wister male rats = test: Cell growth: 3H-thymidine incorporation into bone marrow, duodenum, jejunum; assay type: in vivo, rat; settings: 20 μg/kg i.v., 18 hours after administration
Protocol: To examine the action of administered ghrelin on promotion of cell growth, the f ollowing experiment was conducted. Twenty μg/kg of rat ghrelin or thioether-type rat ghrelin (Compound 18 [Cys^3(octyl)]-hghrelin) was administered into tail veins of Wister male rats (7.5-week-old) respectively. Seventeen hours after administration, ^3H-thymidine was administered into tail veins, and 1 hour thereafter, duodenum, jejunum and bone marrow were excised. The incorporation of […] to DNA fractions of these tissues was measured in order to examine the cell growth-promoting action of ghrelin and ghrelin derivatives. The tissues were cut thin and homogenized using a Polytron homogenizer, and after centrifugation, the supernatant was precipitated with trichloroacetic acid to give a DNA fraction. The radioactivity of the DNA fraction was measured by a liquid scintillation counter.
Numerical values show the ratio (%) of incorporation of radioisotope relative to the mean (in triplicate) of the comparative example (i.e. the group given physiological saline).

IGS-SD strain rats = test: GH-releasing activity of long-chain ghrelin derivatives in rat (plasma GH 15 min after i.v.); assay type: in vivo
Protocol: Fifteen minutes after administration, plasma was collected, and the concentration of GH in plasma was measured by radioimmunoassay (Biotrak/Amersham). Separately, 0.2% bovine serum albumin (BSA)-physiological saline, 6 nmol/kg rGhrelin and hGhrelin, or 80 nmol/kg Ipamorelin (Compound 80) was administered into other rats as the control, respectively, and the concentrations of GH in plasma in 15 minutes after administration were compared (for each sample, n=3).

In the case of CC(C)C[C@H](NC(=O)[C@H](CCCCN)NC(=O)[C@H](C)NC(=O)[C@@H]1CCCN1C(=O)[C@@H]1CCCN1C(=O)[C@H](CCCCN)NC(=O)[C@H](CCCCN)NC(=O)[C@H](CO)NC(=O)[C@H](CCC(=O)O)NC(=O)[C@H](CCCCN)NC(=O)[C@H](CCCNC(=N)N)NC(=O)[C@H](CCC(N)=O)NC(=O)[C@H](CCC(N)=O)NC(=O)[C@H](C)NC(=O)[C@H](CCCCN)NC(=O)[C@H](CCC(N)=O)NC(=O)[C@H](Cc1c[nH]cn1)NC(=O)[C@H](CCC(=O)O)NC(=O)[C@@H]1CCCN1C(=O)[C@H](CO)NC(=O)[C@H](CC(C)C)NC(=O)[C@H](Cc1ccccc1)NC(=O)[C@H](CO)NC(=O)[C@H](CO)NC(=O)CN)C(=O)N[C@@H](CCC(N)=O)C(=O)N1CCC[C@H]1C(=O)N[C@@H](CCCNC(=N)N)C(=O)O [Compound 7, [Ser^3]-rat Ghrelin], the “reaction / affinity with the amino-terminal antibody (in words)” value [1] is reported as “did not react”, the “IC50 in binding between radioisotope-labeled rat ghrelin and the carboxyl-terminal antibody” value [2] is reported as 44 fmol and the “Ca-releasing activity (in words)” value (rat GHS-receptor (GHR-R); CHO-GHSR62 cells) is reported as “did not show a significant Ca-releasing activity”. For the same molecule, the “change in intracellular calcium ion concentration” value [3] was “slightly increased Ca-releasing activity”.
In the case of CCCCCCCCSC[C@H](NC(=O)[C@H](CO)NC(=O)CN)C(=O)N[C@@H](Cc1ccccc1)C(=O)N[C@@H](CC(C)C)C(=O)N[C@@H](CO)C(=O)N1CCC[C@H]1C(=O)N[C@@H](CCC(=O)O)C(=O)N[C@@H](Cc1c[nH]cn1)C(=O)N[C@@H](CCC(N)=O)C(=O)N[C@@H](CCCCN)C(=O)N[C@@H](C)C(=O)N[C@@H](CCC(N)=O)C(=O)N[C@@H](CCC(N)=O)C(=O)N[C@@H](CCCNC(=N)N)C(=O)N[C@@H](CCCCN)C(=O)N[C@@H](CCC(=O)O)C(=O)N[C@@H](CO)C(=O)N[C@@H](CCCCN)C(=O)N[C@@H](CCCCN)C(=O)N1CCC[C@H]1C(=O)N1CCC[C@H]1C(=O)N[C@@H](C)C(=O)N[C@@H](CCCCN)C(=O)N[C@@H](CC(C)C)C(=O)N[C@@H](CCC(N)=O)C(=O)N1CCC[C@H]1C(=O)N[C@@H](CCCNC(=N)N)C(=O)O [Compound 18, [Cys^3(Octyl)]-rGhrelin], the “GH level in plasma, Mean ± S.D.” value (Wistar strain male rats; time 0 min) is reported as 120 ± 146 ng/mL, the “GH level in plasma, individual rats (Rat 1-5)” value (“GH level in plasma … (Rat 1-5)” below) (Wistar strain male rats; time 0 min) is reported as 33 ng/mL and 32 ng/mL and 377 ng/mL and 101 ng/mL and 59 ng/mL and the “GH level in plasma, Mean ± S.D.” value (Wistar strain male rats; time 5 min) is reported as 450 ± 133 ng/mL. The “GH level in plasma … (Rat 1-5)” value (Wistar strain male rats; time 5 min) was 530 ng/mL and 613 ng/mL and 338 ng/mL and 294 ng/mL and 476 ng/mL, the “GH level in plasma, Mean ± S.D.” value (Wistar strain male rats; time 10 min) was 783 ± 324 ng/mL and the “GH level in plasma … (Rat 1-5)” value (Wistar strain male rats; time 10 min) was 959 ng/mL and 1060 ng/mL and 687 ng/mL and 258 ng/mL and 949 ng/mL. The “GH level in plasma, Mean ± S.D.” value (Wistar strain male rats; time 15 min) was 1093 ± 506 ng/mL, the “GH level in plasma … (Rat 1-5)” value (Wistar strain male rats; time 15 min) was 1451 ng/mL and 1561 ng/mL and 927 ng/mL and 300 ng/mL and 1229 ng/mL and the “GH level in plasma, Mean ± S.D.” value (Wistar strain male rats; time 20 min) was 1067 ± 445 ng/mL. The “GH level in plasma … (Rat 1-5)” value (Wistar strain male rats; time 20 min) was 1299 ng/mL and 1359 ng/mL and 900 ng/mL and 358 ng/mL and 1417 ng/mL, the “GH level in plasma, Mean ± S.D.” value (Wistar strain male rats; time 30 min) was 589 ± 229 ng/mL and the “GH level in plasma … (Rat 1-5)” value (Wistar strain male rats; time 30 min) was 800 ng/mL and 726 ng/mL and 469 ng/mL and 245 ng/mL and 704 ng/mL. The “GH level in plasma, Mean ± S.D.” value (Wistar strain male rats; time 60 min) was 132 ± 53 ng/mL, the “GH level in plasma … (Rat 1-5)” value (Wistar strain male rats; time 60 min) was 220 ng/mL and 122 ng/mL and 98 ng/mL and 86 ng/mL and 133 ng/mL and the “incorporation of 3H-thymidine relative to the mean of the physiological saline group, Bone marrow (in tissues)” value (Wister male rats) was 144.5%. For the same molecule, the “incorporation of 3H-thymidine relative to the mean of the physiological saline group, Duodenum (in DNA fraction)” value (Wister male rats) was 114.0%, the “incorporation of 3H-thymidine relative to the mean of the physiological saline group, Jejunum (in DNA fraction)” value (Wister male rats) was 151.0% and the “GH level in plasma in 15 min. after administration, M ± S.D.” value (IGS-SD strain rats; dose 30 nmol/kg i.v., n=3) was 2494 ± 253 ng/mL. The “GH level in plasma in 15 min. after administration, individual rats (Rat 1-3)” value (IGS-SD strain rats; dose 30 nmol/kg i.v., rats under Nembutal) was 2786 ng/mL and 2342 ng/mL and 2354 ng/mL, the “GH-releasing activity (in words)” value (IGS-SD strain rats; i.v., plasma GH at 15 minutes) was “strong GH-releasing activity” and the EC50 (rat GHS-receptor (GHR-R); CHO-GHSR62 cells (CHO cells expressing rat GHS receptor), FLIPR, read-out: Ca-releasing activity EC50) was 5.4 nM.
